Values after ≈ are worked out from the molar mass of the structure shown. One block for each compound: values may come before it.
Assays:
[1] = Lipophilicity, log P of the compound; type: physicochemical; conditions: octanol/water
[2] = Solubility of the compound; type: physicochemical
[3] = biological target: T1, Fructose-bisphosphate aldolase class 2 (Synechocystis sp. (strain PCC 6803 / Kazusa), UniProt Q55664); experiment: (§1) Inhibition of recombinant Synechocystis sp. PCC 6803 FBA2 expressed in Escherichia coli BL21 (DE3) using FBP as substrate measured over 5 mins
T1 sequence (Q55664 whole entry): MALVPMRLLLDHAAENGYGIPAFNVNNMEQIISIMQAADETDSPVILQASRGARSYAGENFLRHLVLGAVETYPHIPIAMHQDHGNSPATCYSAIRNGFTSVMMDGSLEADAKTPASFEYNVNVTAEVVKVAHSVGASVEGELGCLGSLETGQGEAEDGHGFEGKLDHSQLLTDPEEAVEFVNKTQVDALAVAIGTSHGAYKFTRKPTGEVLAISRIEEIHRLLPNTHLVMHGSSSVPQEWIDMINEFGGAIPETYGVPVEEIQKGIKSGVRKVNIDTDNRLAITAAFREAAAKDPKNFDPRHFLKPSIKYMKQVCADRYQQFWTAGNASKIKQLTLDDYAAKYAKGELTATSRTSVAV

[4] = biological target: Fructose-bisphosphate aldolase class 2 (Synechocystis sp. (strain PCC 6803 / Kazusa), UniProt Q55664, S50A); experiment: Inhibition of recombinant Synechocystis sp. PCC 6803 FBA2 S50A mutant expressed in Escherichia coli BL21 (DE3) using FBP as substrate measured over 5 mins
Sequence of Fructose-bisphosphate aldolase class 2 (Synechocystis sp. (strain PCC 6803 / Kazusa), UniProt Q55664, S50A) (Q55664 2-359 S50A limits assumed): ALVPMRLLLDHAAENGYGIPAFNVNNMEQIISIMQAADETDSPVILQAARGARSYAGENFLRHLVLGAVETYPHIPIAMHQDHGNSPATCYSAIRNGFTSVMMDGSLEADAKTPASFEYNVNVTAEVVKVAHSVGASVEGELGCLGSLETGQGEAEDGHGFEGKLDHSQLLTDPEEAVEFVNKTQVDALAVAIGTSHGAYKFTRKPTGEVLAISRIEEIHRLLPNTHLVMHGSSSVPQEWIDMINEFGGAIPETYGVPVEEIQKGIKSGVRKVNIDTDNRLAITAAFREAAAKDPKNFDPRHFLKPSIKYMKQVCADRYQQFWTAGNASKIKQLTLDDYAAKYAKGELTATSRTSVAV

[5] = biological target: Fructose-bisphosphate aldolase class 2 (Synechocystis sp. (strain PCC 6803 / Kazusa), UniProt Q55664, R51A); experiment: Inhibition of recombinant Synechocystis sp. PCC 6803 FBA2 R51A mutant expressed in Escherichia coli BL21 (DE3) using FBP as substrate measured over 5 mins
Sequence of Fructose-bisphosphate aldolase class 2 (Synechocystis sp. (strain PCC 6803 / Kazusa), UniProt Q55664, R51A) (Q55664 2-359 R51A limits assumed): as the sequence (Q55664 2-359 S50A limits assumed) above, with A49S, R50A counted along it

[6] = biological target: Fructose-bisphosphate aldolase class 2 (Synechocystis sp. (strain PCC 6803 / Kazusa), UniProt Q55664, S55A); experiment: Inhibition of recombinant Synechocystis sp. PCC 6803 FBA2 S55A mutant expressed in Escherichia coli BL21 (DE3) using FBP as substrate measured over 5 mins
Sequence of Fructose-bisphosphate aldolase class 2 (Synechocystis sp. (strain PCC 6803 / Kazusa), UniProt Q55664, S55A) (Q55664 2-359 S55A limits assumed): as the sequence (Q55664 2-359 S50A limits assumed) above, with A49S, S54A counted along it

[7] = biological target: Fructose-bisphosphate aldolase class 2 (Synechocystis sp. (strain PCC 6803 / Kazusa), UniProt Q55664, N275A); experiment: Inhibition of recombinant Synechocystis sp. PCC 6803 FBA2 N275A mutant expressed in Escherichia coli BL21 (DE3) using FBP as substrate measured over 5 mins
Sequence of Fructose-bisphosphate aldolase class 2 (Synechocystis sp. (strain PCC 6803 / Kazusa), UniProt Q55664, N275A) (Q55664 2-359 N275A limits assumed): as the sequence (Q55664 2-359 S50A limits assumed) above, with A49S, N274A counted along it

[8] = biological target: Fructose-bisphosphate aldolase class 2 (Synechocystis sp. (strain PCC 6803 / Kazusa), UniProt Q55664, D277A); experiment: Inhibition of recombinant Synechocystis sp. PCC 6803 FBA2 D277A mutant expressed in Escherichia coli BL21 (DE3) using FBP as substrate measured over 5 mins
Sequence of Fructose-bisphosphate aldolase class 2 (Synechocystis sp. (strain PCC 6803 / Kazusa), UniProt Q55664, D277A) (Q55664 2-359 D277A limits assumed): as the sequence (Q55664 2-359 S50A limits assumed) above, with A49S, D276A counted along it

[9] = biological target: Fructose-bisphosphate aldolase class 2 (Synechocystis sp. (strain PCC 6803 / Kazusa), UniProt Q55664, T278A); experiment: Inhibition of recombinant Synechocystis sp. PCC 6803 FBA2 T278A mutant expressed in Escherichia coli BL21 (DE3) using FBP as substrate measured over 5 mins
Sequence of Fructose-bisphosphate aldolase class 2 (Synechocystis sp. (strain PCC 6803 / Kazusa), UniProt Q55664, T278A) (Q55664 2-359 T278A limits assumed): as the sequence (Q55664 2-359 S50A limits assumed) above, with A49S, T277A counted along it

[10] = biological target: Fructose-bisphosphate aldolase class 2 (Synechocystis sp. (strain PCC 6803 / Kazusa), UniProt Q55664, R281A); experiment: Inhibition of recombinant Synechocystis sp. PCC 6803 FBA2 R281A mutant expressed in Escherichia coli BL21 (DE3) using FBP as substrate measured over 5 mins
Sequence of Fructose-bisphosphate aldolase class 2 (Synechocystis sp. (strain PCC 6803 / Kazusa), UniProt Q55664, R281A) (Q55664 2-359 R281A limits assumed): as the sequence (Q55664 2-359 S50A limits assumed) above, with A49S, R280A counted along it

[11] = biological target: Fructose-bisphosphate aldolase class 2 (Synechocystis sp. (strain PCC 6803 / Kazusa), UniProt Q55664, R302A); experiment: Inhibition of recombinant Synechocystis sp. PCC 6803 FBA2 R302A mutant expressed in Escherichia coli BL21 (DE3) using FBP as substrate measured over 5 mins
Sequence of Fructose-bisphosphate aldolase class 2 (Synechocystis sp. (strain PCC 6803 / Kazusa), UniProt Q55664, R302A) (Q55664 2-359 R302A limits assumed): as the sequence (Q55664 2-359 S50A limits assumed) above, with A49S, R301A counted along it

[12] = system: Synechocystis sp. PCC 6803; experiment: Selectivity ratio of Ki for recombinant Synechocystis sp. PCC 6803 FBA2 S50A mutant expressed in Escherichia coli BL21 (DE3) to Ki for recombinant Synechocystis sp. PCC 6803 FBA2 expressed in Escherichia coli BL21 (DE3)
[13] = system: Synechocystis sp. PCC 6803; experiment: Selectivity ratio of Ki for recombinant Synechocystis sp. PCC 6803 FBA2 R51A mutant expressed in Escherichia coli BL21 (DE3) to Ki for recombinant Synechocystis sp. PCC 6803 FBA2 expressed in Escherichia coli BL21 (DE3)
[14] = system: Synechocystis sp. PCC 6803; experiment: Selectivity ratio of Ki for recombinant Synechocystis sp. PCC 6803 FBA2 S55A mutant expressed in Escherichia coli BL21 (DE3) to Ki for recombinant Synechocystis sp. PCC 6803 FBA2 expressed in Escherichia coli BL21 (DE3)
[15] = system: Synechocystis sp. PCC 6803; experiment: Selectivity ratio of Ki for recombinant Synechocystis sp. PCC 6803 FBA2 N275A mutant expressed in Escherichia coli BL21 (DE3) to Ki for recombinant Synechocystis sp. PCC 6803 FBA2 expressed in Escherichia coli BL21 (DE3)
[16] = system: Synechocystis sp. PCC 6803; experiment: Selectivity ratio of Ki for recombinant Synechocystis sp. PCC 6803 FBA2 D277A mutant expressed in Escherichia coli BL21 (DE3) to Ki for recombinant Synechocystis sp. PCC 6803 FBA2 expressed in Escherichia coli BL21 (DE3)
[17] = system: Synechocystis sp. PCC 6803; experiment: Selectivity ratio of Ki for recombinant Synechocystis sp. PCC 6803 FBA2 T278A mutant expressed in Escherichia coli BL21 (DE3) to Ki for recombinant Synechocystis sp. PCC 6803 FBA2 expressed in Escherichia coli BL21 (DE3)
[18] = system: Synechocystis sp. PCC 6803; experiment: Selectivity ratio of Ki for recombinant Synechocystis sp. PCC 6803 FBA2 R281A mutant expressed in Escherichia coli BL21 (DE3) to Ki for recombinant Synechocystis sp. PCC 6803 FBA2 expressed in Escherichia coli BL21 (DE3)
[19] = system: Synechocystis sp. PCC 6803; experiment: Selectivity ratio of Ki for recombinant Synechocystis sp. PCC 6803 FBA2 R302A mutant expressed in Escherichia coli BL21 (DE3) to Ki for recombinant Synechocystis sp. PCC 6803 FBA2 expressed in Escherichia coli BL21 (DE3)
[20] = system: Synechocystis sp. PCC 6803; experiment: Algicidal activity against FBA2 over-expressing Synechocystis sp. PCC 6803 after 24 hrs by microbroth dilution method; type: functional, organism-based; conditions: Synechocystis sp. PCC 6803, 24 h
[21] = system: Synechocystis sp. PCC 6803; experiment: Algicidal activity against wild-type Synechocystis sp. PCC 6803 after 24 hrs by microbroth dilution method; type: functional, organism-based
[22] = system: Synechocystis sp. PCC 6803; experiment: Selectivity ratio of EC50 for FBA2 over-expressing Synechocystis sp. PCC 6803 to EC50 for wild-type Synechocystis sp. PCC 6803; type: functional
[23] = biological target: T2, Fructose-bisphosphate aldolase class 2 (Synechocystis sp. (strain PCC 6803 / Kazusa)) (UniProt Q55664); experiment: as §1; set-up: concentration or dose not given beside the values
T2 sequence (whole entry): T1 sequence (Q55664 whole entry)

[24] = Synechocystis sp. PCC 6803, 24 h, read-out: EC50

SMILES: O=C(O)c1cccc([C@@H]2CCC[C@@H]2c2ncc3nc[nH]c3n2)c1
logP [1]: 2.96
solubility [2]: 13100 µg/mL (≈ 42600 µM)

SMILES: O=C(NC(=S)NNC(=O)c1ccccc1O)c1ccccc1
Ki [3]: 0.65 to 0.7 µM
Ki [4]: 15.2 µM
Ki [5]: 3.9 µM
Ki [6]: 1 µM
Ki [7]: 15.9 µM
Ki [8]: 7.2 µM
Ki [9]: 4.3 µM
Ki [10]: 52.3 µM
Ki [11]: 20.4 µM
Ratio Ki [12]: 23.4
Ratio Ki [13]: 6
Ratio Ki [14]: 1.5
Ratio Ki [15]: 24.5
Ratio Ki [16]: 11
Ratio Ki [17]: 6.6
Ratio Ki [18]: 80.5
Ratio Ki [19]: 31
EC50 [20]: 4.98 µM
EC50 [21, 24]: 0.28 µM
Ratio EC50 [22]: 18

SMILES: Oc1cccc(COC2CC[C@@H](O)C(Cc3ccccc3)O2)c1 (stereo not given in full)
logP [1]: 3.32
solubility [2]: 200 µg/mL (≈ 636 µM)

SMILES: O=C(NC(=S)Nc1ccc([N+](=O)[O-])cc1O)c1ccc(C(F)(F)F)cc1
Ki [3]: 5.5 µM

SMILES: CCNCCc1ccccc1-c1ccccc1
logP [1]: 4
solubility [2]: 8350 µg/mL (≈ 37100 µM)

SMILES: O[C@H]1CO[C@@H](O)C(c2nc3ncncc3n2-c2ccccc2)C1 (stereo not given in full)
logP [1]: 0.82
solubility [2]: 440 µg/mL (≈ 1410 µM)

SMILES: O=C(NC(=S)Nc1ccc([N+](=O)[O-])cc1O)c1ccc([N+](=O)[O-])cc1
Ki [3]: 1.9 µM
Ki [4]: 3.9 µM
Ki [5]: 3.3 µM
Ki [6]: 3.4 µM
Ki [7]: 37.9 µM
Ki [8]: 4.6 µM
Ki [9]: 87.5 µM
Ki [10]: 144 µM
Ki [11]: 24.4 µM
Ratio Ki [12]: 2.1
Ratio Ki [13]: 1.7
Ratio Ki [14]: 2.1
Ratio Ki [15]: 20
Ratio Ki [16]: 2.4
Ratio Ki [17]: 46.3
Ratio Ki [18]: 76
Ratio Ki [19]: 12.9

SMILES: O=C(NC(=S)NNC(=O)c1ccccc1O)c1ccc(F)cc1
Ki [3]: 0.88 µM
EC50 [21, 24]: 0.88 µM

SMILES: O[C@@H]1CC[C@@](O)(n2c(-c3ccccc3)nc3ncncc32)OC1
logP [1]: 0.94
solubility [2]: 730 µg/mL (≈ 2340 µM)

SMILES: c1ccc(-n2c(-n3cnc4ncncc43)nc3cncnc32)cc1
logP [1]: 0.99
solubility [2]: 290 µg/mL (≈ 923 µM)

SMILES: O=C(NC(=S)NNC(=O)c1ccccc1O)c1ccc(Cl)cc1
Ki [3]: 0.63 µM
EC50 [21]: 0.98 ppm

SMILES: N[C@@H](Cc1ccc(O)cc1-c1ccccc1)c1ccccc1O
logP [1]: 3.23
solubility [2]: 6350 µg/mL (≈ 20800 µM)

SMILES: O=CNC(=S)Nc1c(O)cc([N+](=O)[O-])cc1-c1ccccc1
logP [1]: 2.48
solubility [2]: 160 µg/mL (≈ 504 µM)

The next lines start with results.

Ki [3]: 5.5 µM
SMILES: Cc1ccc(C(=O)NC(=S)Nc2ccc([N+](=O)[O-])cc2O)cc1

Ki [3]: 3.1 µM
SMILES: O=C(NNC(=S)NC(=O)c1ccccc1)c1cccc(Br)c1
EC50 [21]: 5.9 ppm

inhibition [23]: 60%
SMILES: O=C(NC(=S)Nc1ccc([N+](=O)[O-])cc1)c1ccccc1

Ki [3]: 2.8 µM
SMILES: O=C(NNC(=S)NC(=O)c1ccccc1)c1ccc([N+](=O)[O-])cc1
EC50 [21, 24]: 2.7 µM

Ki [3]: 1.25 µM
SMILES: O=C(NC(=S)NNC(=O)c1ccc(O)cc1O)c1ccccc1
EC50 [21, 24]: 1.25 µM

Ki [3]: 9.1 µM
SMILES: O=C(NC(=S)Nc1cc([N+](=O)[O-])ccc1O)c1ccccc1

inhibition [23]: 37%
SMILES: O=C(NC(=S)Nc1ccccc1O)c1ccccc1

Ki [3]: 2.5 µM
SMILES: O=C(NC(=S)Nc1ccc([N+](=O)[O-])cc1O)c1ccc(-c2ccccc2)cc1

Ki [3]: 9.1 µM
SMILES: O=C(NC(=S)Nc1cc([N+](=O)[O-])ccc1O)c1ccc(Cl)cc1

Ki [3]: 3.5 µM
SMILES: O=C(NNC(=S)NC(=O)c1ccccc1)c1ccc(F)cc1
EC50 [21]: 8.2 ppm

Ki [3]: 5.2 µM
SMILES: O=C(NNC(=S)NC(=O)c1ccccc1)c1ccc(Br)cc1
EC50 [21]: 1.58 ppm

logP [1]: 2.6
solubility [2]: 180 µg/mL (≈ 567 µM)
Ki [3]: 16.7 µM
SMILES: O=C(NC(=S)Nc1ccc([N+](=O)[O-])cc1O)c1ccccc1

logP [1]: 2.45
solubility [2]: 160 µg/mL (≈ 504 µM)
SMILES: O=CNC(=S)Nc1cc(-c2ccccc2)c([N+](=O)[O-])cc1O

inhibition [23]: 30%
SMILES: O=C(NC(=S)Nc1ccccc1Cl)c1ccccc1

inhibition [23]: 15%
SMILES: O=C(NC(=S)Nc1ccccc1[N+](=O)[O-])c1ccccc1

inhibition [23]: 22%
SMILES: O=C(NC(=S)Nc1ccc(O)cc1)c1ccccc1

Ki [3]: 1.87 µM
SMILES: O=C(NNC(=S)NC(=O)c1ccccc1)c1cccc([N+](=O)[O-])c1
EC50 [21]: 0.39 ppm

inhibition [23]: 42%
SMILES: O=C(NC(=S)Nc1ccc(Br)cc1)c1ccccc1

— ChEMBL document CHEMBL4422665, “Design, synthesis and algicides activities of thiourea derivatives as the novel scaffold aldolase inhibitors” (Bioorg Med Chem, 2019)
